# Measured values taken from patent US20230242558A1, “NICOTINATE AND NICOTINAMIDE RIBOSIDE-BASED COMPOUNDS AND DERIVATIVES THEREOF” (New Frontier Bio, Inc., priority 2022, published 2023).
# Test system: NHDF cells
# Test: General NAD Assay Procedure: total NAD level in NHDF cells (NAD/NADH Quantification Kit)
# Format: cell-based
# Details: for increase in NAD levels compared with NMN: 6-hour time point, all concentrations
# Method: NHDF cells (Lonza Cat #CC-2511) were plated in 12-well tissue culture plates at a density of 200,000 cells per well in 0.75 mL growth medium (Lonza FGM-2 cat #CC-3132 containing growth factors; cat #CC-4126). The plates were then incubated overnight at 37° C. in a humidified atmosphere of 5% CO2. The next day, dilutions of each test article were prepared in growth medium at 4× the desired final concentration. 250 μL of each dilution was added to respective wells to obtain desired concentration in each well. The cells were incubated for the desired length of time.
# After the incubation, the cell monolayers in each well were washed with cold PBS. 400 μL of extraction buffer (provided in the NAD assay kit) was added and triturated 5-6 time. The cell lysate was collected in Eppendorf tubes and then flash frozen in a dry ice-methanol bath for 20 min then thawed at room temperature. The freeze-thaw cycle was repeated one additional time. The cell lysates were centrifuged and the supernatant collected stored at −80° C. until use.
# An aliquot of extract was used to determine total protein concentration using Pierce BCA kit (Thermo Fisher Cat #23225). The total volumes of each sample were adjusted so that the total protein concentration was same in all samples.
# 50 μL of standards and each sample were added to appropriate wells of a 96-well plate, and the NAD assay according to the kit manufacturer's instructions (NAD/NADH Quantification Kit; Sigma-Aldrich; Catalog Number MAK037). The absorbance at 450 nm was measured using an Envision plate reader (Perkin Elmer) with default settings. The data was normalized against a blank. A standard curve was plotted and used to determine the total NAD level in each test sample.
SMILES,"Average Total NAD (pmoles) Concentration from NAD Assay (3-Hour, Conc. 5 μM) [pmol]","Average Total NAD (pmoles) Concentration from NAD Assay (3-Hour, Conc. 10 μM) [pmol]","Average Total NAD (pmoles) Concentration from NAD Assay (3-Hour, Conc. 20 μM) [pmol]","Average Total NAD (pmoles) Concentration from NAD Assay (6-Hour, Conc. 5 μM) [pmol]","Average Total NAD (pmoles) Concentration from NAD Assay (6-Hour, Conc. 10 μM) [pmol]","Average Total NAD (pmoles) Concentration from NAD Assay (6-Hour, Conc. 20 μM) [pmol]",increase in NAD levels compared with NMN
"NC(=O)c1ccc[n+]([C@@H]2O[C@H](COP(=O)([O-])O)[C@@H](O)[C@H]2O)c1 [NMN, nicotinamide mononucleotide, reference compound]",48.5,63.5,63.1,50.9,54.9,58.6,
"O=C(O)c1ccc[n+]([C@@H]2O[C@H](COP(=O)(O)O)[C@@H](O)[C@H]2O)c1 [Sample 1, Nicotinic acid mononucleotide]",38.1,55.0,59.0,72.6,77.8,79.4,
"O=C(NCCCCCC[P+](c1ccccc1)(c1ccccc1)c1ccccc1)c1ccc[n+]([C@@H]2O[C@H](COP(=O)(O)O)[C@@H](O)[C@H]2O)c1 [Sample 2, 1-((2R,3R,4S,5R)-3,4-dihydroxy-5-((phosphonooxy)methyl)tetrahydrofuran-2-yl)-3-((6-(triphenylphosphonio)hexyl)carbamoyl)pyridin-1-ium]",35.5,45.5,59.3,82.2,82.0,74.5,greater increase in NAD levels than NMN
O=C(NCCCCCC[P+](c1ccccc1)(c1ccccc1)c1ccccc1)c1cccnc1 [Sample 5],41.6,57.5,60.0,68.2,77.0,76.0,greater increase in NAD levels than NMN
